Assay results from ChEMBL document CHEMBL1201862, “PubChem BioAssay data set” (2004).
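These data come from cells grown in 96-well plates and exposed to compound for 48 hours at five concentrations. GI50 is the concentration that inhibits growth by half.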 Calls of active or inactive are those of the source. No stated cut-off is given here; in the data, active = GI50 up to about 1.1 µM and inactive = higher.

How the values were obtained:
Assay in all cases: inhibition of tumour cell growth, NCI panel, 48 h
A498 = test system: A498
SK-MEL-5 = test system: SK-MEL-5
PC-3 = test system: PC-3
RXF 393 = test system: RXF 393
BT-549 = test system: BT-549
MDA-MB-231 = test system: MDA-MB-231
DU-145 = test system: DU-145
SW-620 = test system: SW-620
SF-295 = test system: SF-295
NCI-H23 = test system: NCI-H23
K562 = test system: K562
HCC 2998 = test system: HCC 2998
CAKI-1 = test system: CAKI-1
HCT-116 = test system: HCT-116
HL-60 = test system: HL-60
HT-29 = test system: HT-29
MDA-N = test system: MDA-N
SF-539 = test system: SF-539
DMS-273 = test system: DMS-273
M14 = test system: M14

Measured: GI50

CSC(=Nc1nnc(-c2ccc([N+](=O)[O-])cc2)s1)SC
inactive: A498 31.4 µM | SK-MEL-5 55.7 µM | PC-3 > 41.9 µM | RXF 393 20 µM | BT-549 > 77.4 µM | MDA-MB-231 > 58.5 µM | DU-145 > 100 µM | SW-620 > 100 µM | SF-295 18.5 µM | NCI-H23 27.8 µM | K562 > 100 µM | HCC 2998 > 79.6 µM | CAKI-1 16.7 µM | HCT-116 27.4 µM | HL-60 > 100 µM | HT-29 > 100 µM | MDA-N > 72.9 µM | SF-539 18.1 µM | DMS-273 41.1 µM | M14 > 90.6 µM

COC1(C)Cc2c(c(C)c(O)c3c2C(=O)C=C(Cl)C3=O)O1 (stereo not given)
inactive: A498 > 100 µM | SK-MEL-5 40.8 µM | PC-3 > 100 µM | RXF 393 16 µM | BT-549 > 100 µM | MDA-MB-231 16.1 µM | DU-145 91.4 µM | SW-620 19.8 µM | SF-295 > 100 µM | NCI-H23 66.8 µM | K562 8.75 µM | HCC 2998 > 100 µM | CAKI-1 20.4 µM | HCT-116 44.5 µM | HL-60 3.48 µM | HT-29 28.9 µM | MDA-N 34.9 µM | SF-539 > 100 µM | DMS-273 > 64.6 µM | M14 21.8 µM
